Structures are written as SMILES.

For the assay, the target named is T1, human σ1 receptor (Homo sapiens, UniProt Q99720).
T1 construct: expressed in transfected cells; host or cells: HEK-293 (membranes)
T1 sequence (Q99720 whole entry): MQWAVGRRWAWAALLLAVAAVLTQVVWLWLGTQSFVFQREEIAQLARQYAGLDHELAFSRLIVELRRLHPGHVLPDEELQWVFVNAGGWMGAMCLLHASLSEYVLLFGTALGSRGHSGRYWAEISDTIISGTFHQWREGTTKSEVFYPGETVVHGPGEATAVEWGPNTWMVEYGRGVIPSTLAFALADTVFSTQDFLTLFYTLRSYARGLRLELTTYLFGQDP
Nature of the assay: Human σ1 receptor radioligand assay. The format is binding. Conditions: [3H](+)-pentazocine radioligand, transfected HEK-293 membranes.
`C[C@@H](c1ccc(F)cc1Cl)n1cnc2sc3c(c2c1=O)CCNC3` [Example 25, (S)-3-(1-(2-Chloro-4-fluorophenyl)ethyl)-5,6,7,8-tetrahydropyrido[4′,3′:4,5]thieno[2,3-d]pyrimidin-4(3H)-one]: the Ki (usually a dissociation constant, usually derived from enzyme kinetics or from competition with a known ligand) was under 500 nM. `C[C@H](c1cc(F)cc(Cl)c1)n1cnc2sc3c(c2c1=O)CCNC3` [Example 28, (R)-3-(1-(3-chloro-5-fluorophenyl)ethyl)-5,6,7,8-tetrahydropyrido[4′,3′:4,5]thieno[2,3-d]pyrimidin-4(3H)-one] registered a Ki of under 100 nM. Next, `C[C@@H](c1cc(Cl)ccc1F)n1cnc2sc3c(c2c1=O)CCNC3` [Example 29, (S)-3-(1-(5-Chloro-2-fluorophenyl)ethyl)-5,6,7,8-tetrahydropyrido[4′,3′:4,5]thieno[2,3-d]pyrimidin-4(3H)-one]: under 500 nM; `C[C@H](c1ccc(C#N)c(F)c1)n1cnc2sc3c(c2c1=O)CCNC3` [Example 20, (R)-2-fluoro-4-(1-(4-oxo-5,6,7,8-tetrahydropyrido[4′,3′:4,5]thieno[2,3-d]pyrimidin-3(4H)-yl)ethyl)benzonitrile]: over 500 nM. In turn, `C[C@H](c1cc(F)cc(C#N)c1)n1cnc2sc3c(c2c1=O)CCNC3` [Example 30, (R)-3-Fluoro-5-(1-(4-oxo-5,6,7,8-tetrahydropyrido[4′,3′:4,5]thieno[2,3-d]pyrimidin-3(4H)-yl)ethyl)benzonitrile] showed a Ki of under 100 nM.

`C[C@H](c1ccc(F)cc1)n1cnc2sc3c(c2c1=O)CNCC3` [Example 17, (R)-3-(1-(4-Fluorophenyl)ethyl)-5,6,7,8-tetrahydropyrido[3′,4′:4,5]thieno[2,3-d]pyrimidin-4(3H)-one] yielded a Ki of over 500 nM.

In turn, `C[C@H](c1ccc(F)cc1Cl)n1cnc2sc3c(c2c1=O)CCNC3` [Example 26, (R)-3-(1-(2-chloro-4-fluorophenyl)ethyl)-5,6,7,8-tetrahydropyrido[4′,3′:4,5]thieno[2,3-d]pyrimidin-4(3H)-one] returned a Ki of over 500 nM.

`C[C@@H](c1cc(F)cc(Cl)c1)n1cnc2sc3c(c2c1=O)CCNC3` [Example 27, (S)-3-(1-(3-Chloro-5-fluorophenyl)ethyl)-5,6,7,8-tetrahydropyrido[4′,3′:4,5]thieno[2,3-d]pyrimidin-4(3H)-one] displayed a Ki of under 100 nM. Next, `C[C@@H](c1ccc(C#N)c(F)c1)n1cnc2sc3c(c2c1=O)CCNC3` [Example 19, (S)-2-Fluoro-4-(1-(4-oxo-5,6,7,8-tetrahydropyrido[4′,3′:4,5]thieno[2,3-d]pyrimidin-3(4H)-yl)ethyl)benzonitrile]: under 500 nM; `C[C@H](c1cccc(C#N)c1)n1cnc2sc3c(c2c1=O)CCNC3` [Example 14, (R)-3-(1-(4-Oxo-5,6,7,8-tetrahydropyrido[4′,3′:4,5]thieno[2,3-d]pyrimidin-3(4H)-yl)ethyl)benzonitrile]: under 100 nM.

As to `Cc1nc(-c2ccc(C(C)n3cnc4sc5c(c4c3=O)CCNC5)cc2)no1` (centres unmarked) [Example 24, 3-(1-(4-(5-Methyl-1,2,4-oxadiazol-3-yl)phenyl)ethyl)-5,6,7,8-tetrahydropyrido[4′,3′:4,5]thieno[2,3-d]pyrimidin-4(3H)-one], the Ki was over 500 nM.

Source of the values: patent publication US20240182489A1, “New 5,6,7,8-Tetrahydropyrido[4',3':4,5]thieno[2,3-d]pyrimidin-4(3H)-one Derivatives as Sigma Ligands” (ACONDICIONAMIENTO TARRASENSE, priority 2021, published 2024).
